Type in all cases: functional, cell-based
The test system of one assay is NB-4. Description: Cytotoxicity against human NB4 cells after 48 hrs by SRB method. The note with it: NB-4, 48 h. In general terms: Sulforhodamine B stains cellular protein and so reports cell mass.
Another assay concerns SH-SY5Y. In words: Cytotoxicity against human SH-SY5Y cells after 48 hrs by SRB method.
The test system of another assay is MCF7. Description: Cytotoxicity against human MCF7 cells after 48 hrs by SRB method. Particulars: MCF7, 48 h.
The test system of the next assay is PC-3. In words: Cytotoxicity against human PC3 cells after 48 hrs by SRB method. Particulars: PC-3, 48 h.
Another assay concerns A549. Description: Cytotoxicity against human A549 cells after 48 hrs by SRB method. The note with it: A549, 48 h.

Structures are written as SMILES. pIC50: −log10 of the molar value. Bounds are passed on as bounds.

The pIC50 is the IC50 on a negative log10 scale, so that one unit is a factor of ten. For the compound `C=C1C(=O)[C@@]23[C@H](O)C[C@@H]4C(C)(C)[C@H](O)CC[C@@]4(C)[C@@H]2C[C@H](O)[C@@H]1[C@H]3O` [PSEURATA B], the negative-log IC50 (pIC50) with NB-4, in the assay on SH-SY5Y, in the assay with MCF7, in the assay on PC-3 and in the assay on A549 was under 5.00 each time.

For `C=C1C(=O)[C@@]23[C@H](O)C[C@@H]4C(C)(C)[C@@H](O)CC[C@@]4(C)[C@@H]2C[C@H](O)[C@@H]1[C@H]3O` [3-EPIPSEURATA B], the pIC50 in the assay on NB-4, in the assay on SH-SY5Y, with MCF7, in the assay on PC-3 and in the assay with A549 was under 5.00 throughout.

`C=C1C(=O)[C@@]23[C@H](O)C[C@@H]4C(C)(C)[C@H](O)CC[C@@]4(C)[C@@H]2C[C@H](OC(C)=O)[C@@H]1[C@H]3O`: the pIC50 was 5.08 in the assay on NB-4; 5.09 in the assay on SH-SY5Y; under 5.00 in the assay on MCF7; under 5.00 in the assay on PC-3; under 5.00 with A549.

Take `C=C1C(=O)[C@@]23C(CC[C@@H]1[C@H]2O)[C@]1(C)CC[C@H](O)C(C)(C)[C@H]1C[C@H]3O` (stereo not given in full) [WANGZAOZIN A]: the pIC50 in the assay with NB-4 is 5.04; in the assay with SH-SY5Y it was under 5.00; with MCF7, 5.24; in the assay on PC-3, under 5.00; with A549 it was 5.03.

`C=C1[C@@H]2C(=O)C[C@H]3[C@@]4(C)[C@H](C[C@@H](O)[C@@]3([C@@H]1O)[C@@H]2O)C(C)(C)[C@@H](OC(C)=O)C[C@@H]4O` [DIHYDROPSEURATA F]: the pIC50 in the assay on NB-4, with SH-SY5Y, in the assay with MCF7, in the assay with PC-3 and with A549 was under 5.00 each time.

For `C=C1C(=O)[C@@]23[C@H](O)C[C@@H]4C(C)(C)[C@@H](OC(C)=O)CC[C@@]4(C)[C@@H]2CC(=O)[C@@H]1[C@H]3O` [PSEURATA C], the pIC50 in the assay on NB-4 was 5.68; in the assay on SH-SY5Y, under 5.00; with MCF7 it was under 5.00; in the assay with PC-3, under 5.00; with A549, 5.12.

Turning to `C=C1C(=O)[C@@]23[C@H](O)C[C@@H]4C(C)(C)[C@@H](O)C[C@H](O)[C@@]4(C)[C@@H]2CC[C@@H]1[C@H]3O` [MINHERYIN G], the pIC50 in the assay with NB-4, in the assay on SH-SY5Y, in the assay with MCF7, with PC-3 and in the assay on A549 was under 5.00 in each case.

`C=C1C(=O)[C@@]23[C@H](O)C[C@@H]4C(C)(C)[C@@H](OC(C)=O)CC[C@@]4(C)[C@@H]2CC[C@@H]1[C@H]3O` [LEUKAMENIN E]: the negative-log IC50 (pIC50) was 5.40 in the assay with NB-4; under 5.00 in the assay on SH-SY5Y; under 5.00 in the assay with MCF7; under 5.00 in the assay on PC-3; under 5.00 in the assay with A549.

As for `C=C1C(=O)[C@@]23C(CC[C@@H]1[C@H]2O)[C@]1(C)CC[C@@H](O)C(C)(C)[C@H]1C[C@H]3O` (stereo not given in full) [PSEURATA A], the pIC50 with NB-4 is 5.11; in the assay with SH-SY5Y it was under 5.00; in the assay on MCF7, 5.04; with PC-3, under 5.00; in the assay with A549, 5.53.

Consider `COC[C@@H]1C(=O)[C@@]23[C@H](O)C[C@@H]4C(C)(C)[C@@H](OC(C)=O)CC[C@@]4(C)[C@@H]2CC(=O)[C@@H]1[C@H]3O`, for which the negative-log IC50 (pIC50) in the assay on NB-4 is 5.06; with SH-SY5Y it was under 5.00; with MCF7, under 5.00; with PC-3 it was 5.13; in the assay on A549, under 5.00.

As for `C=C1C(=O)[C@@]23[C@H](O)C[C@@H]4C(C)(C)[C@@H](OC(C)=O)C[C@H](O)[C@@]4(C)[C@@H]2C[C@H](O)[C@@H]1[C@H]3O`, the pIC50 with NB-4, in the assay on SH-SY5Y, in the assay with MCF7, with PC-3 and in the assay with A549 was under 5.00 each time.

Turning to `C=C1C(=O)[C@@]23[C@H](O)C[C@@H]4C(C)(C)[C@@H](OC(C)=O)C[C@H](O)[C@@]4(C)[C@@H]2CC[C@@H]1[C@H]3O` [ISODOMEDIN], the negative-log IC50 (pIC50) in the assay on NB-4 was 5.14; in the assay on SH-SY5Y, under 5.00; in the assay with MCF7, under 5.00; in the assay with PC-3 it was under 5.00; in the assay with A549 it was under 5.00.

With `C=C1[C@H]2[C@@H](OC(C)=O)[C@@]3(CC[C@@H]4C(C)(C)[C@@H](O)CC[C@@]4(C)[C@@H]3C[C@@H]2O)[C@@H]1O`, the negative-log IC50 (pIC50) with NB-4, in the assay with SH-SY5Y, in the assay with MCF7, in the assay with PC-3 and in the assay with A549 was under 5.00 each time.

For `C=C1C(=O)[C@@]23[C@H](O)C[C@@H]4C(C)(C)C(=O)CC[C@@]4(C)[C@@H]2CC[C@@H]1[C@H]3OC(C)=O` [GLAUCOCALYXIN B], the pIC50 was 5.10 with NB-4; under 5.00 with SH-SY5Y; under 5.00 in the assay with MCF7; under 5.00 in the assay with PC-3; 5.21 in the assay with A549.

On to `C=C1C(=O)[C@@]23[C@@H]4OC(C)(C)O[C@@H]2C[C@@H]2C(C)(C)[C@H](O)CC[C@@]2(C)[C@@H]3C[C@H](O)[C@@H]14`, for which the negative-log IC50 (pIC50) was 5.45 in the assay on NB-4; under 5.00 in the assay with SH-SY5Y; under 5.00 in the assay with MCF7; under 5.00 with PC-3; 5.22 in the assay on A549.

Take `C=C1C(=O)[C@@]23[C@H](O)C[C@@H]4C(C)(C)[C@@H](OC(C)=O)C[C@H](O)[C@@]4(C)[C@@H]2CC(=O)[C@@H]1[C@H]3O` [PSEURATA F]: the pIC50 in the assay with NB-4, in the assay on SH-SY5Y, with MCF7, with PC-3 and in the assay on A549 was under 5.00 in each case.

Consider `C=C1C(=O)[C@]23[C@H](O)[C@H]1C(=O)C[C@H]2[C@]1(C)CC[C@H](OC(C)=O)C(C)(C)[C@H]1C[C@H]3OC(C)=O`, for which the negative-log IC50 (pIC50) in the assay with NB-4, in the assay on SH-SY5Y, in the assay with MCF7, with PC-3 and in the assay on A549 was under 5.00 throughout.

With `C=C1C(=O)[C@@]23[C@H](O)C[C@@H]4C(C)(C)C(=O)CC[C@@]4(C)[C@@H]2CC[C@@H]1[C@H]3O` [GLAUCOCALYXIN A], the pIC50 in the assay on NB-4 was 5.54; in the assay on SH-SY5Y, under 5.00; with MCF7, 5.06; in the assay with PC-3, under 5.00; in the assay with A549, 5.27.

Source of the values: ChEMBL document CHEMBL1152923, “ent-Kaurane diterpenoids from Isodon pharicus” (J Nat Prod, 2009).
